Results: patent publication US20260274814A1, “THIENYL COMPOUNDS FOR THE TREATMENT OF A CENTRAL NERVOUS SYSTEM DISEASE OR DISORDER” (Coreterra Therapeutics, Inc., priority 2023, published 2026)
Where a name gives a salt, the structure may show the parent alone. Read-outs that look alike come from different tables or passages of the source.

System: mice
Assay: Neuropharmacological Assay (SmartCube): automated behavioral signature of compound-treated mice compared with a database of reference drug classes
Type: in vivo
Conditions: for MED (minimal effective dose) / minimal effective dose / MED: i.p., that dose is shown; for minimal effective dose: Mus musculus, ip
Method in brief: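 Probabilities reflect how closely the digitally recorded behavioural signature at 3.0 mg/kg i.p. matched each reference class (antipsychotic, anxiolytic, antidepressant etc.). Dosing occurred 15 min before testing. Minimal effective dose was the dose giving 45% or more total activity.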

[1] = dose having 45% or more total activity in SmartCube, if only one dose was tested, hydrochloride
[2] = probability that activity matches this class of agents, 3.0 mg/kg i.p., 15 min before test
[3] = probability that activity matches this class of agents, 3.0 mg/kg i.p., 15 min before test, hydrochloride, 3 mg/kg
[4] = dose having 45% or more total activity in SmartCube, if only one dose was tested, read-out: MED (minimal effective dose)
[5] = minimal effective dose: dose having 45% or more total activity in SmartCube, if only one dose tested, read-out: MED
[6] = SmartCube class probability, 3.0 mg/kg i.p., 15 min before test
[7] = SmartCube class probability, 3.0 mg/kg i.p., 15 min before test, hydrochloride, 3 mg/kg
[8] = minimal effective dose: dose having 45% or more total activity in SmartCube, if only one dose tested
[9] = SmartCube probability class, 3.0 mg/kg dose, i.p. 15 min before the behavioral test
[10] = SmartCube probability class, 3.0 mg/kg dose, i.p. 15 min before the behavioral test, formate salt, 3 mg/kg
[11] = SmartCube probability class, 3.0 mg/kg dose, i.p. 15 min before the behavioral test, hydrochloride, 3 mg/kg

Structure (SMILES)	AD [2]	AG [2]	AN [2]	AX [2]	HL [2]	MS [2]	PS [2]	minimal effective dose [4] [mg/kg]	CE [2]	SH [2]	UK [2]	AP [2]	AG [6]	AN [6]	HL [6]	MS [6]	PS [6]	also measured
CNC1CCCc2ccsc2C1.Cl (single isomer, unassigned) [Compound 25, N-methyl-5,6,7,8-tetrahydro-4H-cyclohepta[b]thiophen-7-amine hydrochloride]	ND (^ <4%)	ND (^ <4%)	ND (^ <4%)	ND (^ <4%)	ND (^ <4%)	ND (^ <4%)	ND (^ <4%)											MED (minimal effective dose) [1]: 1.0 mpk; AP [3]: ++++ (≥74%); CE [3]: ND (^ <4%); SH [3]: ND (^ <4%); UK [3]: ND (^ <4%)
CNC1CCc2c(Cl)sc(Cl)c2C1 (single isomer, unassigned) [Compound 59, 1,3-dichloro-N-methyl-4,5,6,7-tetrahydro-2-benzothiophen-5-amine hydrochloride]	ND (^ <4%)	ND (^ <4%)	ND (^ <4%)		ND (^ <4%)	ND (^ <4%)	ND (^ <4%)	3	ND (^ <4%)	ND (^ <4%)	ND (^ <4%)							AP [3]: +++ (≥49%); AX [3]: ++ (≥24%)
CNC1CC=Cc2ccsc2C1.Cl (stereo not drawn) [Compound 24, N-methyl-7,8-dihydro-6H-cyclohepta[b]thiophen-7-amine hydrochloride]	ND (^ <4%)	ND (^ <4%)	ND (^ <4%)	ND (^ <4%)	ND (^ <4%)	ND (^ <4%)	ND (^ <4%)	3	ND (^ <4%)	+++ (≥49%)	ND (^ <4%)	ND (^ <4%)						
CNC1CCc2scc(C(F)(F)F)c2C1.Cl (single isomer, unassigned) [Compound 194, N-methyl-3-(trifluoromethyl)-4,5,6,7-tetrahydrobenzothiophen-5-amine hydrochloride]													ND (^ <4%)	ND (^ <4%)	ND (^ <4%)	ND (^ <4%)	ND (^ <4%)	minimal effective dose [5]: 3 mg/kg; AD [6]: ND (^ <4%); AX [6]: ND (^ <4%); CE [6]: ND (^ <4%); SH [6]: ND (^ <4%); AP [7]: ++++ (≥74%); UK [7]: ND (^ <4%)
NC1CCc2sccc2C1 (single isomer, unassigned) [Compound 213, 4,5,6,7-tetrahydrobenzothiophen-5-amine hydrochloride]													ND (^ <4%)	ND (^ <4%)	ND (^ <4%)	ND (^ <4%)	ND (^ <4%)	AP [6]: + (≥4%); UK [6]: ND (^ <4%); AD [7]: + (≥4%); AX [7]: +++ (≥49%); CE [7]: ND (^ <4%); SH [7]: + (≥4%); MED [8]: 1 mpk
Cl.FC1(F)CC(NC2CCc3cscc3C2)C1 (single isomer, unassigned) [Compound 126, N-(3,3-difluorocyclobutyl)-4,5,6,7-tetrahydro-2-benzothiophen-5-amine hydrochloride]	ND (^ <4%)	ND (^ <4%)	ND (^ <4%)	ND (^ <4%)	ND (^ <4%)	ND (^ <4%)	ND (^ <4%)	> 30	ND (^ <4%)	ND (^ <4%)	ND (^ <4%)	ND (^ <4%)						
CNC1CC=Cc2cscc2C1 (stereo not drawn) [Compound 168, N-methyl-5,6-dihydro-4H-cyclohepta[c]thiophen-5-amine hydrochloride]													ND (^ <4%)	ND (^ <4%)	ND (^ <4%)	ND (^ <4%)	ND (^ <4%)	minimal effective dose [5]: 3 mg/kg; AD [6]: ND (^ <4%); AP [6]: +++ (≥49%); AX [6]: ND (^ <4%); CE [6]: ND (^ <4%); SH [6]: ND (^ <4%); UK [6]: ND (^ <4%)
CNC1CCc2csc(C)c2C1.Cl (single isomer, unassigned) [Compound 41, N, 3-dimethyl-4,5,6,7-tetrahydro-2-benzothiophen-5-amine hydrochloride]		ND (^ <4%)	ND (^ <4%)		ND (^ <4%)	ND (^ <4%)	ND (^ <4%)		ND (^ <4%)	ND (^ <4%)	ND (^ <4%)	++ (≥24%)						MED (minimal effective dose) (dose having 45% or more total activity in SmartCube, if only one dose was tested): 1.0 mpk; AD [3]: +++ (≥49%); AX [3]: ND (^ <4%)
CNC1COc2sccc2C1 (single isomer, unassigned) [Compound 294, N-methyl-3,4-dihydro-2H-thieno[2,3-b]pyran-3-amine formate salt]																		AD [9]: ND (^ <4%); AG [9]: ND (^ <4%); AN [9]: ND (^ <4%); AX [9]: ND (^ <4%); CE [9]: ND (^ <4%); HL [9]: ND (^ <4%); MS [9]: ND (^ <4%); PS [9]: ND (^ <4%); SH [9]: ND (^ <4%); AP [10]: ND (^ <4%); UK [10]: + (≥4%); MED (minimal effective dose: dose having 45% or more total activity in SmartCube, if only one dose was tested, formate salt): >3 mpk
CNC1COc2csc(C#N)c2C1 (stereo not drawn) [Compound 139, 3-(methylamino)-3,4-dihydro-2H-thieno[3,4-b]pyran-5-carbonitrile hydrochloride]	++ (≥24%)	ND (^ <4%)	ND (^ <4%)	ND (^ <4%)	ND (^ <4%)	ND (^ <4%)	ND (^ <4%)	0.3	ND (^ <4%)	ND (^ <4%)	++ (≥24%)	ND (^ <4%)						
CCc1scc2c1CCC(NC)C2 (single isomer, unassigned) [Compound 114, 1-ethyl-N-methyl-4,5,6,7-tetrahydro-2-benzothiophen-5-amine hydrochloride]		ND (^ <4%)	ND (^ <4%)	ND (^ <4%)	ND (^ <4%)	ND (^ <4%)	ND (^ <4%)		ND (^ <4%)	ND (^ <4%)	ND (^ <4%)							MED (minimal effective dose) [1]: 3 mpk; AD [3]: +++ (≥49%); AP [3]: + (≥4%)
CNC1CCc2scc(C3CC3)c2C1 (single isomer, unassigned) [Compound 250, 3-cyclopropyl-N-methyl-4,5,6,7-tetrahydrobenzothiophen-5-amine hydrochloride]													ND (^ <4%)	ND (^ <4%)	ND (^ <4%)	ND (^ <4%)	ND (^ <4%)	AD [6]: ND (^ <4%); CE [6]: ND (^ <4%); SH [6]: ND (^ <4%); AP [7]: + (≥4%); AX [7]: ++++ (≥74%); UK [7]: ND (^ <4%); MED [8]: 3 mpk
Cc1csc2c1OCC(N)C2 (single isomer, unassigned) [Compound 295, 3-methyl-6,7-dihydro-5H-thieno[3,2-b]pyran-6-amine hydrochloride]																		minimal effective dose (minimal effective dose: dose having 45% or more total activity in SmartCube, if only one dose was tested, read-out: MED): 3 mg/kg; AD [9]: ND (^ <4%); AG [9]: ND (^ <4%); AN [9]: ND (^ <4%); AX [9]: ND (^ <4%); CE [9]: ND (^ <4%); HL [9]: ND (^ <4%); MS [9]: ND (^ <4%); PS [9]: ND (^ <4%); SH [9]: ND (^ <4%); AP [11]: +++ (≥49%); UK [11]: ND (^ <4%)
CNC1CCc2scc(Cl)c2C1 (stereo not drawn) [Compound 90, 3-chloro-N-methyl-4,5,6,7-tetrahydrobenzothiophen-5-amine hydrochloride]	ND (^ <4%)	ND (^ <4%)	ND (^ <4%)	ND (^ <4%)	ND (^ <4%)	ND (^ <4%)	ND (^ <4%)	3	ND (^ <4%)	ND (^ <4%)	ND (^ <4%)	+++ (≥49%)						
N#Cc1csc2c1CC(N)CC2 (single isomer, unassigned) [Compound 177, 5-amino-4,5,6,7-tetrahydrobenzo[b]thiophene-3-carbonitrile hydrochloride]													ND (^ <4%)	ND (^ <4%)	ND (^ <4%)	ND (^ <4%)	ND (^ <4%)	AD [6]: ND (^ <4%); AP [6]: ND (^ <4%); AX [6]: ND (^ <4%); CE [6]: ND (^ <4%); SH [6]: ND (^ <4%); UK [7]: ++++ (≥74%); MED (minimal effective dose: dose having 45% or more total activity in SmartCube, if only one dose tested, hydrochloride): 3 mpk
